# Assay results from ChEMBL document CHEMBL1201862, “PubChem BioAssay data set” (2004).
#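 All cell lines were grown in 96-well plates and treated with compound for 48 hours. GI50 = concentration required for 50% inhibition of growth.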 Active and inactive are the calls of the source. Cut-off read from the data, not from the text of the source: active = GI50 up to about 1.1 µM and inactive = higher.
# Key:
# Test in all cases: NCI anticancer screen, dose series, 48 h
# NCI-H460 = system: NCI-H460
# SK-OV-3 = system: SK-OV-3
# EKVX = system: EKVX
# RPMI-8226 = system: RPMI-8226
# CAKI-1 = system: CAKI-1
# HCT-116 = system: HCT-116
# MDA-N = system: MDA-N
# ACHN = system: ACHN
# SK-MEL-28 = system: SK-MEL-28
# HOP-62 = system: HOP-62
# UACC-62 = system: UACC-62
# M14 = system: M14
# NCI-H522 = system: NCI-H522
# HOP-92 = system: HOP-92
# Hs-578T = system: Hs-578T
# TK-10 = system: TK-10
# PC-3 = system: PC-3
# U-251 = system: U-251
# MDA-MB-231 = system: MDA-MB-231
# SN12C = system: SN12C
SMILES,GI50 (NCI-H460),GI50 (SK-OV-3),GI50 (EKVX),GI50 (RPMI-8226),GI50 (CAKI-1),GI50 (HCT-116),GI50 (MDA-N),GI50 (ACHN),GI50 (SK-MEL-28),GI50 (HOP-62),GI50 (UACC-62),GI50 (M14),GI50 (NCI-H522),GI50 (HOP-92),GI50 (Hs-578T),GI50 (TK-10),GI50 (PC-3),GI50 (U-251),GI50 (MDA-MB-231),GI50 (SN12C)
O=C(O)/C(Cc1ccc([N+](=O)[O-])cc1)=N\O,> 100 µM (inactive),> 100 µM (inactive),39.1 µM (inactive),> 100 µM (inactive),> 100 µM (inactive),> 100 µM (inactive),> 100 µM (inactive),> 100 µM (inactive),> 100 µM (inactive),> 100 µM (inactive),> 100 µM (inactive),> 100 µM (inactive),29.6 µM (inactive),27.9 µM (inactive),31.8 µM (inactive),> 100 µM (inactive),> 100 µM (inactive),> 100 µM (inactive),> 100 µM (inactive),> 100 µM (inactive)
CC(C)C1=Cc2ccc3c(c2C(=O)C1=O)CCCC3,10.6 µM (inactive),2.92 µM (inactive),9.14 µM (inactive),2.12 µM (inactive),0.955 µM (active),1.95 µM (inactive),6.61 µM (inactive),3.49 µM (inactive),7.5 µM (inactive),21.4 µM (inactive),7.46 µM (inactive),5.11 µM (inactive),2.27 µM (inactive),0.998 µM (active),20.2 µM (inactive),2.52 µM (inactive),13.8 µM (inactive),19.1 µM (inactive),16 µM (inactive),5.27 µM (inactive)
CC1(C)C(=O)/C(=C/c2ccccc2)C(C)(C)C1(C)C,62.7 µM (inactive),> 55.5 µM (inactive),> 58.5 µM (inactive),31.4 µM (inactive),49.1 µM (inactive),38.5 µM (inactive),39.1 µM (inactive),53.3 µM (inactive),> 100 µM (inactive),40.9 µM (inactive),54.1 µM (inactive),85.1 µM (inactive),63.2 µM (inactive),> 40 µM (inactive),40.6 µM (inactive),46.6 µM (inactive),53.7 µM (inactive),55.5 µM (inactive),> 93.8 µM (inactive),50.8 µM (inactive)
O=C1C2C3C=CC(C2C(=O)N1CN1CCOCC1)C1C2C(=O)N(CN4CCOCC4)C(=O)C2C31 (stereo not given),> 37.5 µM (inactive),> 71.4 µM (inactive),97.1 µM (inactive),34.6 µM (inactive),> 68.2 µM (inactive),> 44.9 µM (inactive),> 100 µM (inactive),> 53.3 µM (inactive),> 48.6 µM (inactive),> 100 µM (inactive),> 47 µM (inactive),> 42.9 µM (inactive),> 40 µM (inactive),> 62.1 µM (inactive),> 100 µM (inactive),> 55.3 µM (inactive),> 100 µM (inactive),> 45.3 µM (inactive),> 100 µM (inactive),> 44.7 µM (inactive)
O=S(=O)(O)c1cc(/N=N/c2cc(S(=O)(=O)O)c3cccnc3c2O)ccc1/C=C/c1ccc(/N=N/c2cc(S(=O)(=O)O)c3cccnc3c2O)cc1S(=O)(=O)O,> 100 µM (inactive),> 100 µM (inactive),> 100 µM (inactive),> 97.7 µM (inactive),> 100 µM (inactive),> 89.1 µM (inactive),> 100 µM (inactive),> 100 µM (inactive),> 100 µM (inactive),> 100 µM (inactive),> 100 µM (inactive),63.2 µM (inactive),> 100 µM (inactive),> 72.4 µM (inactive),> 100 µM (inactive),> 100 µM (inactive),> 100 µM (inactive),> 100 µM (inactive),> 100 µM (inactive),> 100 µM (inactive)
O=C(NCCCCCN1CCC2(CCCCC2)CC1)C(C1CCCCC1)C1CCCCC1,2.45 µM (inactive),5.15 µM (inactive),3.6 µM (inactive),2.19 µM (inactive),4.1 µM (inactive),4.44 µM (inactive),1.84 µM (inactive),3.67 µM (inactive),1.83 µM (inactive),1.85 µM (inactive),2.48 µM (inactive),1.68 µM (inactive),4.17 µM (inactive),3.73 µM (inactive),3.05 µM (inactive),4.71 µM (inactive),2.77 µM (inactive),4.34 µM (inactive),5.11 µM (inactive),3.55 µM (inactive)
Cc1c(C)c(S(=O)(=O)N(CCCCCON)OCCCN)c(C)c2c1OC(C)(C)CC2,9.93 µM (inactive),14.5 µM (inactive),12.3 µM (inactive),9.29 µM (inactive),6.41 µM (inactive),14.8 µM (inactive),14.3 µM (inactive),16.4 µM (inactive),16.5 µM (inactive),16 µM (inactive),14.3 µM (inactive),7 µM (inactive),17.7 µM (inactive),10.3 µM (inactive),19.3 µM (inactive),14.3 µM (inactive),13.2 µM (inactive),12.8 µM (inactive),15.7 µM (inactive),15.4 µM (inactive)
CN(C)/C=N/S(=O)(=O)c1nn2c(C=O)c(-c3ccc(-c4ccc([N+](=O)[O-])cc4)o3)nc2s1,1.63 µM (inactive),36.1 µM (inactive),5.07 µM (inactive),0.931 µM (active),0.308 µM (active),1.34 µM (inactive),1.1 µM (active),1.97 µM (inactive),2.4 µM (inactive),7.43 µM (inactive),3.68 µM (inactive),2.12 µM (inactive),1.38 µM (inactive),1.84 µM (inactive),3.88 µM (inactive),3.39 µM (inactive),3.37 µM (inactive),2.25 µM (inactive),2.65 µM (inactive),1.71 µM (inactive)
Cc1cccc2c1c(=O)c1c(O)cc(O)cc1n2C,> 100 µM (inactive),66.1 µM (inactive),85.1 µM (inactive),> 100 µM (inactive),> 100 µM (inactive),78.3 µM (inactive),> 100 µM (inactive),> 100 µM (inactive),> 100 µM (inactive),> 100 µM (inactive),90.6 µM (inactive),55 µM (inactive),97.7 µM (inactive),92.9 µM (inactive),33.8 µM (inactive),> 100 µM (inactive),> 100 µM (inactive),> 100 µM (inactive),> 100 µM (inactive),> 100 µM (inactive)
COc1ccc(C2OC(=O)c3ccc4ccccc4c32)c(C)c1 (stereo not given),4.18 µM (inactive),7.82 µM (inactive),18.8 µM (inactive),11.1 µM (inactive),13.3 µM (inactive),4.93 µM (inactive),2 µM (inactive),20.6 µM (inactive),11.9 µM (inactive),7.26 µM (inactive),6.93 µM (inactive),6.73 µM (inactive),4.42 µM (inactive),10.9 µM (inactive),10.2 µM (inactive),15.2 µM (inactive),9.08 µM (inactive),4.86 µM (inactive),6.12 µM (inactive),10.1 µM (inactive)
